Assay results taken from patent US20220211605A1, “AGENT FOR PROTECTION AGAINST ATMOSPHERIC POLLUTANTS AND COMPOSITION FOR PROTECTION AGAINST ATMOSPHERIC POLLUTANTS” (SHOWA DENKO K.K., priority 2019, published 2022).

Columns and labels:
[1] = tested on: normal human epidermal keratinocytes (NHEK); test: Effect of suppressing ROS production (dichlorofluorescein diacetate ROS assay kit) in NHEK exposed to atmospheric dust; type: cell-based; settings: sample 10 μM for 24 hours, then atmospheric dust (NIST 1648a) added 500 μg/mL for 48 hours, fluorescence relative to control without atmospheric dust = 1
Experimental: The effect of Na tocopherol phosphate on suppressing ROS production in normal human epidermal keratinocytes (NHEK, manufactured by KURABO INDUSTRIES LTD.) was measured under the following conditions.
The NHEK cells were seeded in a HuMedia KG2 medium manufactured by KURABO INDUSTRIES LTD. at the seeding density of 10000 cells/cm^2, and cultured for 24 hours under the conditions of 37° C. and 5% CO2. Next, a sample, in which Na tocopherol phosphate or tocopherol acetate was dissolved in an aqueous solution of 0.05% (V/V) ethanol, was added to the culture medium so that the final concentration of Na tocopherol phosphate or tocopherol acetate was 10 μM, and culturing was performed for 24 hours under the conditions of 37° C. and 5% CO2. Furthermore, one obtained by adding 1 μL of the aqueous solution of 0.05% (V/V) ethanol to the culture medium and culturing for 24 hours was also prepared. […] Thereafter, the ROS production amount was measured using a ROS assay kit (manufactured by OZ BIOSCIENCES). […] After washing with PBS again, 100 μL of PBS was added, and the fluorescence intensity at an excitation wavelength of 485 nm/an absorption wavelength of 535 nm was measured with a microplate reader i-Control (manufactured by Tecan Group Ltd.). […]

[2] = tested on: NRF2 gene; test: Effect of promoting expression of NRF2 gene (quantitative real-time PCR, standardized to GAPDH) in NHEK exposed to atmospheric dust; type: cell-based, human; settings: sample 10 μM for 24 hours, then atmospheric dust added 500 μg/mL for 48 hours, relative to control without atmospheric dust = 1
Experimental: The effect of Na tocopherol phosphate on promoting the expression of an NRF2 gene in normal human epidermal keratinocytes (NHEK, manufactured by KURABO INDUSTRIES LTD.) was measured under the following conditions.
The NHEK cells were seeded in a HuMedia KG2 medium manufactured by KURABO INDUSTRIES LTD. at the seeding density of 10000 cells/cm^2, and cultured for 24 hours under the conditions of 37° C. and 5% CO2. Next, a sample, in which Na tocopherol phosphate or tocopherol acetate was dissolved in an aqueous solution of 0.05% (V/V) ethanol, was added to the culture medium so that the final concentration of Na tocopherol phosphate or tocopherol acetate was 10 μM, and culturing was performed for 24 hours. Furthermore, one obtained by adding 5 μL of the aqueous solution of 0.05% (V/V) ethanol to the culture medium and culturing for 24 hours was also prepared. […] Using this cDNA as a template, the expression level of the NRF2 gene was quantitatively determined by quantitative real-time PCR using a primer specific to the NRF2 gene (Perfect Real Time Primer, manufactured by Takara Bio Inc.). As an internal standard gene, the expression level of GAPDH was quantitatively determined (primer used: Perfect Real Time Primer, manufactured by Takara Bio Inc.), and the expression level of the NRF2 gene was standardized based on the expression level of GAPDH. […]

[3] = tested on: cell line derived from Lewis lung carcinoma (LLC); test: Effect of suppressing invasion of cancer cells (CytoSelect invasion assay kit) exposed to atmospheric dust; type: cell-based; settings: sample 10 μM for 24 hours, then atmospheric dust (NIST 1648a) added 500 μg/mL for 6 hours + 18 hours, fluorescence relative to control without atmospheric dust = 1
Experimental: The effect of Na tocopherol phosphate on suppressing the invasion of cells in a cell line derived from Lewis lung carcinoma (LLC, JCRB Cell Bank) was measured under the following conditions. A CytoSelect invasion assay kit manufactured by Cell Biolabs, Inc. was used for a test.
The LLC cells were seeded in a chamber plate for invasion tests attached to the above-mentioned invasion assay kit so that the concentration was 100000 cells/mL using a culture medium in which a Ham F10 medium and an L15 medium (both manufactured by Sigma-Aldrich) were mixed at the ratio of 3:7 (volume ratio), and cultured for 24 hours under the conditions of 37° C. and 5% CO2. Next, a sample, in which Na tocopherol phosphate or tocopherol acetate was dissolved in an aqueous solution of 0.05% (V/V) ethanol, was added to the culture medium so that the final concentration of Na tocopherol phosphate or tocopherol acetate was 10 μM, and culturing was further performed for 24 hours under the conditions of 37° C. and 5% CO2. […] Thereafter, the cells were stained using the above-mentioned invasion assay kit, and the fluorescence intensity at an excitation wavelength of 480 nm/an absorption wavelength of 570 nm was measured with a microplate reader i-Control (manufactured by Tecan Group Ltd.). […]

[4] = tested on: cell line derived from Lewis lung carcinoma (LLC); test: Effect of suppressing proliferation of cancer cells (WST-8) exposed to atmospheric dust; type: cell-based; settings: sample 10 μM for 24 hours, then atmospheric dust (NIST 1648a) added 500 μg/mL for 48 hours, absorbance 450 nm relative to control without atmospheric dust = 1
Experimental: The effect of Na tocopherol phosphate on suppressing the proliferation of cancer cells in a cell line derived from Lewis lung carcinoma (LLC, JCRB Cell Bank) was measured under the following conditions.
The LLC cells were seeded at the seeding density of 50000 cells/cm^2 in a culture medium in which a Ham F10 medium and an L15 medium (both manufactured by Sigma-Aldrich) were mixed at the ratio of 3:7 (volume ratio), and cultured for 24 hours under the conditions of 37° C. and 5% CO2. Next, a sample, in which Na tocopherol phosphate or tocopherol acetate was dissolved in an aqueous solution of 0.05% (V/V) ethanol, was added to the culture medium so that the final concentration of Na tocopherol phosphate or tocopherol acetate was 10 μM, and culturing was performed for 24 hours. Furthermore, one obtained by adding 1 μL of the aqueous solution of 0.05% (VN) ethanol to the culture medium and culturing for 24 hours was also prepared. […] Thereafter, the culture medium was replaced with a medium containing 10% (VN) of WST-8 of Nacalai Tesque Inc., and after further culturing for 3 hours, the absorbance at the wavelength of 450 nm was measured with a microplate reader i-Control (manufactured by Tecan Group Ltd.). […]

With `CC(=O)Oc1c(C)c(C)c2c(c1C)CCC(C)(CCC[C@H](C)CCC[C@H](C)CCCC(C)C)O2` (stereo partly shown) [Tocopherol acetate, tocopherol acetate] the “Relative ROS production amount” value [1] was 1.67, the “Relative gene expression level NRF2” value [2] was 0.71 and the Relative cell invasion [3] was 2.08. For the same compound, the “Relative cell proliferation amount” value [4] was 3.98.
